The values below come from US8410150B2, “Inhibitors of carnitine palmitoyltransferase and treating cancer” (University Health Network, priority 2007, dated 2013).

Counter-ions that a name gives are not always drawn. Some results are limits rather than exact numbers.

In this experiment the target is T1, human CPT1A (Homo sapiens, UniProt P50416).
T1 construct: made in house; host or cells: Saccharomyces cerevisiae (pESC-trp) or cultured mammalian cells (pCDNA3.1); mitochondrial extract
T1 sequence (P50416 1-773): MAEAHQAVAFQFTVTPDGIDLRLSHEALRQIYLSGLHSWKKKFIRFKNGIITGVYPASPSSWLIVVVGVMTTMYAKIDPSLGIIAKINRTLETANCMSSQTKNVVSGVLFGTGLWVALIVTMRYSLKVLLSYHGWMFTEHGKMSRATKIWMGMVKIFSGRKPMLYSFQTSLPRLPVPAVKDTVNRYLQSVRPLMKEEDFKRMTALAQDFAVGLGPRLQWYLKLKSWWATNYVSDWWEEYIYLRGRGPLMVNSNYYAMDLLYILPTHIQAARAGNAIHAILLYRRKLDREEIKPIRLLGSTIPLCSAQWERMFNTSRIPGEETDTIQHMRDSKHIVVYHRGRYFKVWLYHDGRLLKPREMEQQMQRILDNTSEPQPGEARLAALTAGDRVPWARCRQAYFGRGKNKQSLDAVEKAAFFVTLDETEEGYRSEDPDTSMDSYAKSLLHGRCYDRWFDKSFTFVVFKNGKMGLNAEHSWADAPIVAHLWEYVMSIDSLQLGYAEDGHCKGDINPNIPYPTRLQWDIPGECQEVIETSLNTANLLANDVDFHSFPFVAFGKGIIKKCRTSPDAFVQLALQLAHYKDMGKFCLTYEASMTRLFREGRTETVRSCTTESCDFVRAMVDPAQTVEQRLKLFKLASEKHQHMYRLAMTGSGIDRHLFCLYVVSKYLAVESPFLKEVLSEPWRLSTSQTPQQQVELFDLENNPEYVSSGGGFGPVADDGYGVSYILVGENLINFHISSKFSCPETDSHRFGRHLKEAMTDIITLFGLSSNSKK
Nature of the experiment: Human CPT1A LC/MS assay. In kind it is biochemical. To be noted: human CPT1A LC/MS assay, dose response format. The method, boiled down:
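Mitochondrial extracts (1.6 μg protein) expressing human CPT1A, preincubated 10 min with compound in 20% DMSO, then reacted 10 min at room temperature with 20 μM palmitoyl-CoA, 50 μM L-carnitine (pH 7.5). Palmitoyl carnitine was quantified by LC/MS against a myristoyl carnitine standard; 16-point, 2-fold titrations gave dose response.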
Turning to `Cn1nc(C(F)(F)F)cc1-c1ccc(S(=O)(=O)N[C@H](CC(=O)O)C[N+](C)(C)C)s1` [Example S72, (R)-3-carboxy-N,N,N-trimethyl-2-(5-(1-methyl-3-(trifluoromethyl)-1H-pyrazol-5-yl)thiophene-2-sulfonamido)propan-1-aminium 2,2,2-trifluoroacetate], the IC50 fell in the range of 100 to 1000 µM. The result for `C[N+](C)(C)C[C@@H](CC(=O)O)NC(=O)c1ccc(NS(=O)(=O)c2cccs2)cc1` [Example S2, (R)-3-(4-(thiophene-2-sulfonamido)benzamido)-4-(trimethylammonio)-butanoate] reads 100 to 1000 µM; that for `C[N+](C)(C)C[C@@H](CC(=O)O)NC(=O)c1ccc(Br)s1` [Example S95, (R)-2-(5-bromothiophene-2-carboxamido)-3-carboxy-N,N,N-trimethyl-propan-1-aminium trifluoroacetate], 10 to 100 µM; that for `CCCCCCC(=O)C(=O)N[C@H](CC(=O)O)C[N+](C)(C)C` [Example S120, (R)-3-carboxy-N,N,N-trimethyl-2-(2-oxooctanamido)propan-1-aminium 2,2,2-trifluoroacetate], 1 to 10 µM. The figure for `C[N+](C)(C)C[C@@H](CC(=O)O)NC(=O)Nc1ccc(OCc2ccccc2)cc1` [Example S12, (R)-3-(3-(4-(Benzyloxy)phenyl)ureido)-4-(trimethylammonio)butanoate acetate] is 100 to 1000 µM.

`CCCCCc1ccc(NC(=O)N[C@H](CC(=O)[O-])C[N+](C)(C)C)cc1` [Example S15, (R)-3-Carboxy-N,N,N-trimethyl-2-(3-(4-pentylphenyl)ureido)propan-1-aminium] registered an IC50 of 10 to 100 µM. In the case of `CCCCCc1ccc(CCc2ccc(C(=O)N[C@H](CC(=O)O)C[N+](C)(C)C)o2)cc1` [Example S123, (R)-3-carboxy-N,N,N-trimethyl-2-(5-(4-pentylphenethyl)furan-2-carboxamido)propan-1-aminium 2,2,2-trifluoroacetate], the IC50 is at most 1 µM.

In the case of `C[N+](C)(C)C[C@@H](CC(=O)O)NS(=O)(=O)c1ccc(-c2ccno2)s1` [Example S22, (R)-3-carboxy-2-(5-(isoxazol-5-yl)thiophene-2-sulfonamido)-N,N,N-trimethylpropan-1-aminium 2,2,2-trifluoroacetate], the IC50 is 1000 to 2500 µM. The result for `C[N+](C)(C)C[C@@H](CC(=O)[O-])NC(=O)Nc1cccc(-n2cccc2)c1` [Example S84, (R)-3-(3-(3-(1H-pyrrol-1-yl)phenyl)ureido)-4-(trimethylammonio)butanoate] reads 100 to 1000 µM. The result for `CCCCCCc1ccc(CCc2ccc(C(=O)N[C@H](CC(=O)O)C[N+](C)(C)C)o2)s1` [Example S119, (R)-3-(5-(2-(5-hexylthiophen-2-yl)ethyl)furan-2-carboxamido)-4-(trimethylammonio)butanoate] reads at most 1 µM; that for `CCCn1cc(C(=O)N[C@H](CC(=O)[O-])C[N+](C)(C)C)c(C)n1` [Example S54, (R)-3-(3-methyl-1-propyl-1H-pyrazole-4-carboxamido)-4-(trimethyl-ammonio)butanoate], 1000 to 2500 µM.

For `C[N+](C)(C)C[C@@H](CC(=O)O)NC(=O)Nc1ccc(-c2ccccc2)cc1` [Example S17, (R)-2-(3-Biphenyl-4-ylureido)-3-carboxy-N,N,N-trimethylpropan-1-aminium acetate], the IC50 was 100 to 1000 µM.

With `CCCCCc1ccc(CCc2ccc(S(=O)(=O)N[C@H](CC(=O)O)C[N+](C)(C)C)s2)cc1` [Example S83, (R)-3-carboxy-N,N,N-trimethyl-2-(5-(4-pentylphenethyl)thiophene-2-sulfonamido)propan-1-aminium 2,2,2-trifluoroacetate], the IC50 lay within 1 to 10 µM. The figure for `CCCCCCCCOc1ccc(NS(=O)(=O)N[C@H](CC(=O)[O-])C[N+](C)(C)C)cc1` [Example S103, (R)-3-(N-(4-(octyloxy)phenyl)sulfamoylamino)-4-(trimethylammonio) butanoate] is at most 1 µM; for `C[N+](C)(C)C[C@@H](CC(=O)O)NC(=O)c1ccc(CCc2ccccc2)o1` [Example S42, (R)-3-(5-phenethylfuran-2-carboxamido)-4-(trimethylammonio)-butanoate] it is at most 1 µM. The figure for `CCCCCCC#Cc1cccc(N(C)S(=O)(=O)N[C@H](CC(=O)[O-])C[N+](C)(C)C)c1` [Example S112, (R)-3-(N—(N-methyl-N-(3-(oct-1-ynyl)phenyl)sulfamoyl)amino)-4-(trimethyl-ammonio)butanoate] is 10 to 100 µM; for `CCCCCc1ccc(CCc2ccc(NS(=O)(=O)N[C@H](CC(=O)[O-])C[N+](C)(C)C)cc2)cc1` [Example S108, (R)-3-(N-(4-(4-pentylphenethyl)phenyl)sulfamoylamino)-4-(trimethyl-ammonio)butanoate] it is at most 1 µM; for `CCCCCCCCCCc1ccc(NS(=O)(=O)N[C@H](CC(=O)O)C[N+](C)(C)C)cc1` [Example S92, (R)-3-(N-(4-decylphenyl)sulfamoylamino)-4-(trimethylammonio)butanoate] it is at most 1 µM. The figure for `Cc1ccc(CCc2ccc(S(=O)(=O)N[C@H](CC(=O)O)C[N+](C)(C)C)s2)cc1` [Example S81, (R)-3-carboxy-N,N,N-trimethyl-2-(5-(4-methylphenethyl)thiophene-2-sulfonamido)propan-1-aminium 2,2,2-trifluoroacetate] is 1 to 10 µM. As to `C[N+](C)(C)C[C@@H](CC(=O)O)NC(=O)c1ccc(CCc2ccccc2)s1` [Example S45, (R)-3-(5-phenethylthiophene-2-carboxamido)-4-(trimethylammonio)-butanoate], the concentration for half-maximal inhibition (IC50) was at most 1 µM. The figure for `Cc1nc(-c2cnccn2)sc1C(=O)N[C@H](CC(=O)[O-])C[N+](C)(C)C` [Example S51, (R)-3-(4-methyl-2-(pyrazin-2-yl)thiazole-5-carboxamido)-4-(trimethyl-ammonio)butanoate] is over 2500 µM; for `C[N+](C)(C)C[C@@H](CC(=O)[O-])NC(=O)c1ccc(CSCc2ccccc2)o1` [Example S56, (R)-3-(5-(benzylthiomethyl)furan-2-carboxamido)-4-(trimethylammonio)-butanoate] it is 1 to 10 µM. The result for `CCCCC#Cc1ccc(C(=O)N[C@H](CC(=O)[O-])C[N+](C)(C)C)o1` [Example S4, (R)-3-(5-(hex-1-ynyl)furan-2-carboxamido)-4-(trimethylammonio)butanoate] reads 10 to 100 µM. Compound `CCCCCCCc1ccc(NS(=O)(=O)N[C@H](CC(=O)[O-])C[N+](C)(C)C)cc1` [Example S27, (R)-3-(N-(4-heptylphenyl)sulfamoylamino)-4-(trimethylammonio)-butanoate] returned an IC50 of at most 1 µM. The figure for `C[N+](C)(C)C[C@@H](CC(=O)[O-])NC(=O)c1ccc(CSc2ccc(Cl)cc2)o1` [Example S71, (R)-3-(5-((4-chlorophenylthio)methyl)furan-2-carboxamido)-4-(trimethyl-ammonio)butanoate] is at most 1 µM; for `Cc1cc(COc2ccccc2)oc1C(=O)N[C@H](CC(=O)[O-])C[N+](C)(C)C` [Example S65, (R)-3-(3-methyl-5-(phenoxymethyl)furan-2-carboxamido)-4-(trimethyl-ammonio)butanoate] it is 100 to 1000 µM. The figure for `C[N+](C)(C)C[C@@H](CC(=O)O)NC(=O)c1ccc(C#Cc2ccsc2)s1` [Example S97, (R)-3-carboxy-N,N,N-trimethyl-2-(5-(thiophen-3-ylethynyl)thiophene-2-carboxamido)propan-1-aminium 2,2,2-trifluoroacetate] is at most 1 µM.
